Source: PubChem BioAssay AID1963433 (Molecular Pharmacology Branch, DTP, NCI, 2024)
Where “and” joins values, the source holds several entries; their conditions need not be identical. Equal values may be shown once. Blank lines part the entries; values can stand above or below the compound they belong to.

System: 772245-204-R-J1-PDC complex spheroid growth
Assay: Anticancer human tumor 772245-204-R-J1-PDC patient-derived rhabdomyosarcoma cell line growth inhibition [Asc]
Conditions: for viability, T/C: stronger effect = lower value
In short: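 Spheroid model: tumor line + HUVEC + hMSC. Single agents and combinations; top conc. at/near clinical Cmax (10 microM if undetermined), half-log dilutions. DMSO stocks at 800-fold test concentration.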
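Also: compound exposure lasted seven days.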
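For viability, T/C in this document: 100% = DMSO vehicle control viability.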

IC50 (curve of first compound, second compound 0.01 µM): > 100 nM
IC50 (curve of first compound, second compound 0.0316 µM): > 100 nM
IC50 (curve of first compound, second compound 0.1 µM): > 100 nM
IC50 (curve of first compound, second compound 0.316 µM): > 100 nM
IC50 (curve of first compound, second compound 1 µM): > 100 nM
Structure (SMILES): Cn1ncnc1[C@H]1c2n[nH]c(=O)c3cc(F)cc(c23)N[C@@H]1c1ccc(F)cc1 + CNC(C)C(=O)NC1CN(S(=O)(=O)c2cccc(S(=O)(=O)N3CCC4CCC(C(=O)NC(c5ccccc5)c5ccccc5)N4C(=O)C(NC(=O)C(C)NC)C3)c2)CCC2CCC(C(=O)NC(c3ccccc3)c3ccccc3)N2C1=O
viability, T/C (second compound 0.01 µM, first compound 0.000316 µM): 85.5%
viability, T/C (second compound 0.01 µM, first compound 0.001 µM): 83.7%
viability, T/C (second compound 0.01 µM, first compound 0.00316 µM): 91.7%
viability, T/C (second compound 0.01 µM, first compound 0.01 µM): 90%
viability, T/C (second compound 0.01 µM, first compound 0.0316 µM): 91%
viability, T/C (second compound 0.01 µM, first compound 0.1 µM): 76.1%
viability, T/C (second compound 0.0316 µM, first compound 0.000316 µM): 98.9%
viability, T/C (second compound 0.0316 µM, first compound 0.001 µM): 94.9%
viability, T/C (second compound 0.0316 µM, first compound 0.00316 µM): 99.7%
viability, T/C (second compound 0.0316 µM, first compound 0.01 µM): 97.1%
viability, T/C (second compound 0.0316 µM, first compound 0.0316 µM): 85%
viability, T/C (second compound 0.0316 µM, first compound 0.1 µM): 94.2%
viability, T/C (second compound 0.1 µM, first compound 0.000316 µM): 97%
viability, T/C (second compound 0.1 µM, first compound 0.001 µM): 96.6%
viability, T/C (second compound 0.1 µM, first compound 0.00316 µM): 85.7%
viability, T/C (second compound 0.1 µM, first compound 0.01 µM): 102%
viability, T/C (second compound 0.1 µM, first compound 0.0316 µM): 81.7%
viability, T/C (second compound 0.1 µM, first compound 0.1 µM): 79.4%
viability, T/C (second compound 0.316 µM, first compound 0.000316 µM): 97.3%
viability, T/C (second compound 0.316 µM, first compound 0.001 µM): 96.2%
viability, T/C (second compound 0.316 µM, first compound 0.00316 µM): 96.1%
viability, T/C (second compound 0.316 µM, first compound 0.01 µM): 82.2%
viability, T/C (second compound 0.316 µM, first compound 0.0316 µM): 89.2%
viability, T/C (second compound 0.316 µM, first compound 0.1 µM): 94.4%
viability, T/C (second compound 1 µM, first compound 0.000316 µM): 112%
viability, T/C (second compound 1 µM, first compound 0.001 µM): 88.4%
viability, T/C (second compound 1 µM, first compound 0.00316 µM): 97.8%
viability, T/C (second compound 1 µM, first compound 0.01 µM): 85.3%
viability, T/C (second compound 1 µM, first compound 0.0316 µM): 84.2%
viability, T/C (second compound 1 µM, first compound 0.1 µM): 85.6%

IC50 (curve of compound): > 10000 nM
Structure (SMILES): C=CC(=O)N1CCN(c2nc(=O)n(-c3c(C)ccnc3C(C)C)c3nc(-c4c(O)cccc4F)c(F)cc23)C(C)C1 (centres undefined)
viability, T/C (compound 0.0316 µM): 91.4% and 88.5% and 102%
viability, T/C (compound 0.1 µM): 97.5% and 109% and 89.4%
viability, T/C (compound 0.316 µM): 95.3% and 97% and 98%
viability, T/C (compound 1 µM): 90.4% and 101% and 97.3%
viability, T/C (compound 3.16 µM): 90.9% and 102% and 111%
viability, T/C (compound 10 µM): 79.6% and 97.6% and 109%

IC50 (curve of compound): 136 nM and 41.3 nM and > 300 nM
Structure (SMILES): NC(=O)C(=Cn1cnc(-c2cc(C(F)(F)F)cc(C(F)(F)F)c2)n1)c1cncnc1
viability, T/C (compound 0.000949 µM): 92.1% and 79.1% and 89.4%
viability, T/C (compound 0.003 µM): 94.4% and 79.8% and 83.2%
viability, T/C (compound 0.00949 µM): 89.3% and 86.5% and 108%
viability, T/C (compound 0.03 µM): 69.9% and 55.1% and 101%
viability, T/C (compound 0.0949 µM): 49.8% and 38% and 82.4%
viability, T/C (compound 0.3 µM): 49.2% and 25.1% and 59.7%
